This is an account of results in US20260240847A1, “COMPOUNDS WITH ANTI-TUMOR ACTIVITY AGAINST CANCER CELLS BEARING TYROSINE KINASE INHIBITOR RESISTANT EGFR MUTATIONS” (BOARD OF REGENTS, THE UNIVERSITY OF TEXAS SYSTEM, priority 2019, published 2026).

Holding throughout (assay): Ba/F3 cell viability, Cell Titer Glo
One assay addresses EGFR L858R/T790M/L718Q (Homo sapiens, UniProt P00533, L718Q/L858R/T790M). To be noted: read-out: IC50 Values; Ba/F3 cells expressing EGFR L858R/T790M/L718Q, 72 hours.
The next assay concerns the target EGFR Ex19del G724S (Homo sapiens, UniProt P00533, DEL746-750/G724S). As to conditions: read-out: IC50 Values; Ba/F3 cells expressing EGFR Ex19del G724S, 72 hours.
In another assay the target is EGFR R776C (Homo sapiens, UniProt P00533, R776C). As to conditions: read-out: IC50 Values; Ba/F3 cells expressing EGFR R776C, 72 hours.
The target of the next assay is EGFR Ex19del L718Q (Homo sapiens, UniProt P00533, DEL746-750/L718Q). To be noted: read-out: IC50 Values; Ba/F3 cells expressing EGFR Ex19del L718Q, 72 hours.
The target of a further assay is EGFR Ex19del/T790M/L792H (Homo sapiens, UniProt P00533, DEL746-750/L792H/T790M). To be noted: read-out: IC50 Values; Ba/F3 cells expressing EGFR Ex19del/T790M/L792H, 72 hours.
A further assay addresses EGFR L747S (Homo sapiens, UniProt P00533, L747S). As to conditions: read-out: IC50 Values; Ba/F3 cells expressing EGFR L747S, 72 hours.
The target in another assay is EGFR G719A T790M (Homo sapiens, UniProt P00533, G719A/T790M). To be noted: read-out: IC50 Values; Ba/F3 cells expressing EGFR G719A T790M, 72 hours.
The target of a further assay is EGFR L858R G724S (Homo sapiens, UniProt P00533, G724S/L858R). To be noted: read-out: IC50 Values; Ba/F3 cells expressing EGFR L858R G724S, 72 hours.
The next assay addresses EGFR E709K L858R (Homo sapiens, UniProt P00533, E709K/L858R). To be noted: read-out: IC50 Values; Ba/F3 cells expressing EGFR E709K L858R, 72 hours.
A further assay concerns the target EGFR Ex19delT790M L718V (Homo sapiens, UniProt P00533, DEL746-750/L718V/T790M). To be noted: read-out: IC50 Values; Ba/F3 cells expressing EGFR Ex19delT790M L718V, 72 hours.
Another assay deals with EGFR Ex19del/L792H (Homo sapiens, UniProt P00533, DEL746-750/L792H). As to conditions: read-out: IC50 Values; Ba/F3 cells expressing EGFR Ex19del/L792H, 72 hours.
EGFR Ex19del/L792H, sequence (P00533 with tags, fused parts or gaps DEL746-750/L792H): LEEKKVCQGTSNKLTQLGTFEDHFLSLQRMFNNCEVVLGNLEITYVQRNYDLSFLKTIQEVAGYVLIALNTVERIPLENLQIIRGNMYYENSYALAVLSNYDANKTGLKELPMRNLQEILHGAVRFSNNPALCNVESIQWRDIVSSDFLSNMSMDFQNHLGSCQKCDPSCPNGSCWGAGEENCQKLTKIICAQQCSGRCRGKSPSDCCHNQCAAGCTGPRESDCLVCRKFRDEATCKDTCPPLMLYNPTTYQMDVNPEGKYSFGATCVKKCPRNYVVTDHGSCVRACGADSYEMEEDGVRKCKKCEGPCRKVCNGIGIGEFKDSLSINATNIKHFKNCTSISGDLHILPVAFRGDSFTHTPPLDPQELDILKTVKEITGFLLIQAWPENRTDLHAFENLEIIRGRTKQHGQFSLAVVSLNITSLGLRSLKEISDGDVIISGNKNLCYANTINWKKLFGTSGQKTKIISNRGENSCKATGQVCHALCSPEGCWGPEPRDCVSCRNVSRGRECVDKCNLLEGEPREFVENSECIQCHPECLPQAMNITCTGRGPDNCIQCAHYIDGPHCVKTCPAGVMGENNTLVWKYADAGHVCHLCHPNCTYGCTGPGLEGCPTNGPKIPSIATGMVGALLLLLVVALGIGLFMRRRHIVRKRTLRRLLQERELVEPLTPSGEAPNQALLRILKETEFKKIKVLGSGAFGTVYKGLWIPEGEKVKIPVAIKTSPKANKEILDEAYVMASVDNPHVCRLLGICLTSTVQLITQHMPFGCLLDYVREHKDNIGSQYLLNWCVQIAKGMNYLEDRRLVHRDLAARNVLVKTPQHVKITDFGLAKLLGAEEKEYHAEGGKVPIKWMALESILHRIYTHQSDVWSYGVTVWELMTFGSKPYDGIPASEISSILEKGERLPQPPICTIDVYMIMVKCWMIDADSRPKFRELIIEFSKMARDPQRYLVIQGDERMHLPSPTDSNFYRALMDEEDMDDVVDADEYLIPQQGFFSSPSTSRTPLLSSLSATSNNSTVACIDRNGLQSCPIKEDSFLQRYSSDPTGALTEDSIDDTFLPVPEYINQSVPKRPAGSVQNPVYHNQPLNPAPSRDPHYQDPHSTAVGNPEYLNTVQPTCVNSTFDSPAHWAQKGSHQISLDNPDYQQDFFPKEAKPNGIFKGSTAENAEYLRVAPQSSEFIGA
A further assay deals with EGFR S768I/T790M (Homo sapiens, UniProt P00533, S768I/T790M). To be noted: read-out: IC50 Values; Ba/F3 cells expressing EGFR S768I/T790M, 72 hours.
A further assay addresses EGFR L833F (Homo sapiens, UniProt P00533, L833F). As to conditions: read-out: IC50 Values; Ba/F3 cells expressing EGFR L833F, 72 hours.
In another assay the target is EGFR S784F (Homo sapiens, UniProt P00533, S784F). To be noted: read-out: IC50 Values; Ba/F3 cells expressing EGFR S784F, 72 hours.
EGFR S784F, sequence (P00533 25-1210 S784F): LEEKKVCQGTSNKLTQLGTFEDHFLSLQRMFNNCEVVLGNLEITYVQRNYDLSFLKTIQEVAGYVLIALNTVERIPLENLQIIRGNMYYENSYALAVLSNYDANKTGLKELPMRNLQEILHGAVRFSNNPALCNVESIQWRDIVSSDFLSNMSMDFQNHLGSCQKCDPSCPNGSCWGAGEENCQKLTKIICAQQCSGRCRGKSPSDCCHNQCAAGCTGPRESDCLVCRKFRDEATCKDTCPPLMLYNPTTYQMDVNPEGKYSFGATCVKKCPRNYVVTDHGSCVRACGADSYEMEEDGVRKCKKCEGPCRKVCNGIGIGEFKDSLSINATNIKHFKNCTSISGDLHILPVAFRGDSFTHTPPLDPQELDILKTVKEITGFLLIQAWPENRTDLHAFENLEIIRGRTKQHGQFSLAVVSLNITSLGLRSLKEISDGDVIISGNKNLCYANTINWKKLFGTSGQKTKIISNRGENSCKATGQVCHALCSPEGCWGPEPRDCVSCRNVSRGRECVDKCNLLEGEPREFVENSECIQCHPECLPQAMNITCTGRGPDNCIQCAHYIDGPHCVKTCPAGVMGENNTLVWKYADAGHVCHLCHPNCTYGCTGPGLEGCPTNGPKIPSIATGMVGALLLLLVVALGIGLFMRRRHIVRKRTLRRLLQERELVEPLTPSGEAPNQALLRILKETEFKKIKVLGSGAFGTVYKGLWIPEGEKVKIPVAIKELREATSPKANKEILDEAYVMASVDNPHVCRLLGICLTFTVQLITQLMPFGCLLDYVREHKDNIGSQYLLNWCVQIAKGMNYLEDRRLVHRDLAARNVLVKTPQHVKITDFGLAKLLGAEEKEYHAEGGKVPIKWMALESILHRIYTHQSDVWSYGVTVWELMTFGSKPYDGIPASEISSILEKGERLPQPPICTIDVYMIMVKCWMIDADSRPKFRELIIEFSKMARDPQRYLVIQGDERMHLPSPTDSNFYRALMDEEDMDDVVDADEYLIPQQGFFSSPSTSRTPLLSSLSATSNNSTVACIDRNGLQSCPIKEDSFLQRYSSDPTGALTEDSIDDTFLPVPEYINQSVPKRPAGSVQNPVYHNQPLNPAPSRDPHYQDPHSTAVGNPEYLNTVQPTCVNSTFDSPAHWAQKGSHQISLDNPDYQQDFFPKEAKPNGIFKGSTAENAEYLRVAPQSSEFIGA
In the next assay the target is EGFR D770insNPG (Homo sapiens, UniProt P00533, INS770NPG). As to conditions: read-out: IC50 Values; Ba/F3 cells expressing EGFR D770insNPG, 72 hours.
For a further assay, the target named is EGFR E709K (Homo sapiens, UniProt P00533, E709K). To be noted: read-out: IC50 Values; Ba/F3 cells expressing EGFR E709K, 72 hours.
The target of a further assay is EGFR G719A/R776C (Homo sapiens, UniProt P00533, G719A/R776C). To be noted: read-out: IC50 Values; Ba/F3 cells expressing EGFR G719A/R776C, 72 hours.
In another assay the target is EGFR E709A (Homo sapiens, UniProt P00533, E709A). To be noted: read-out: IC50 Values; Ba/F3 cells expressing EGFR E709A, 72 hours.
A further assay deals with EGFR G724S (Homo sapiens, UniProt P00533, G724S). As to conditions: read-out: IC50 Values; Ba/F3 cells expressing EGFR G724S, 72 hours.
The target in another assay is EGFR S768I V774M (Homo sapiens, UniProt P00533, S768I/V774M). As to conditions: read-out: IC50 Values; Ba/F3 cells expressing EGFR S768I V774M, 72 hours.

pIC50: −log10 of the molar value.

EGFR Ex19delT790M L718V, sequence (P00533 with tags, fused parts or gaps L718V/DEL746-750/T790M): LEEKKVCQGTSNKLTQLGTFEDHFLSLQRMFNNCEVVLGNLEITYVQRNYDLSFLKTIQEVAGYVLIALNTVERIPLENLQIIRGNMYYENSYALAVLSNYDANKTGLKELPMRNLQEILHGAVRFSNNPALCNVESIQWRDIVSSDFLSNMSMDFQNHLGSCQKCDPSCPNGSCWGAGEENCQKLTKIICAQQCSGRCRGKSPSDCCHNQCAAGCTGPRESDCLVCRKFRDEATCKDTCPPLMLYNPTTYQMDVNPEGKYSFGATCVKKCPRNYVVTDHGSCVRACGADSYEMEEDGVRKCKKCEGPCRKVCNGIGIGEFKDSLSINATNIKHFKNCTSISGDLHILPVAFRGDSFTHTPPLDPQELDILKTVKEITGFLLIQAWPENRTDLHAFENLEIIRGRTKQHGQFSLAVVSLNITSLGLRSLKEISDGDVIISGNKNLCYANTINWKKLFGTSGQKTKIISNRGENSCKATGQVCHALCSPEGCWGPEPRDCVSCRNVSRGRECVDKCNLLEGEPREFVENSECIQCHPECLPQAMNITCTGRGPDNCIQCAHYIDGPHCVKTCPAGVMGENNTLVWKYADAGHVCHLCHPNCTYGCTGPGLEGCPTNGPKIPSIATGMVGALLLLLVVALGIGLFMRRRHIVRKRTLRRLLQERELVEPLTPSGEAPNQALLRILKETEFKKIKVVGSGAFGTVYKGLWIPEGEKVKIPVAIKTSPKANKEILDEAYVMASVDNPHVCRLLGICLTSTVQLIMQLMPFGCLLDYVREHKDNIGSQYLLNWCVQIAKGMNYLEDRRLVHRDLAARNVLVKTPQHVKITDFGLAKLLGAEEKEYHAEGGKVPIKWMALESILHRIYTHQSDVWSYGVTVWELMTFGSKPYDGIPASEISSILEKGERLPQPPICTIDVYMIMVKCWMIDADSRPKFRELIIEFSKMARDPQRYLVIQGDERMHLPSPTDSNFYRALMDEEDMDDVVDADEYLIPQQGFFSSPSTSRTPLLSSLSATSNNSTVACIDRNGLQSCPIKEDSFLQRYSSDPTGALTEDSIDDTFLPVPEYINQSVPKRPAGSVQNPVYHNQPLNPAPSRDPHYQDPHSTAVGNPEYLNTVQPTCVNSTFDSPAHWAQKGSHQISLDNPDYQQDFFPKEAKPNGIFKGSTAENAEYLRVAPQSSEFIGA
EGFR E709K L858R, sequence (P00533 25-1210 E709K/L858R): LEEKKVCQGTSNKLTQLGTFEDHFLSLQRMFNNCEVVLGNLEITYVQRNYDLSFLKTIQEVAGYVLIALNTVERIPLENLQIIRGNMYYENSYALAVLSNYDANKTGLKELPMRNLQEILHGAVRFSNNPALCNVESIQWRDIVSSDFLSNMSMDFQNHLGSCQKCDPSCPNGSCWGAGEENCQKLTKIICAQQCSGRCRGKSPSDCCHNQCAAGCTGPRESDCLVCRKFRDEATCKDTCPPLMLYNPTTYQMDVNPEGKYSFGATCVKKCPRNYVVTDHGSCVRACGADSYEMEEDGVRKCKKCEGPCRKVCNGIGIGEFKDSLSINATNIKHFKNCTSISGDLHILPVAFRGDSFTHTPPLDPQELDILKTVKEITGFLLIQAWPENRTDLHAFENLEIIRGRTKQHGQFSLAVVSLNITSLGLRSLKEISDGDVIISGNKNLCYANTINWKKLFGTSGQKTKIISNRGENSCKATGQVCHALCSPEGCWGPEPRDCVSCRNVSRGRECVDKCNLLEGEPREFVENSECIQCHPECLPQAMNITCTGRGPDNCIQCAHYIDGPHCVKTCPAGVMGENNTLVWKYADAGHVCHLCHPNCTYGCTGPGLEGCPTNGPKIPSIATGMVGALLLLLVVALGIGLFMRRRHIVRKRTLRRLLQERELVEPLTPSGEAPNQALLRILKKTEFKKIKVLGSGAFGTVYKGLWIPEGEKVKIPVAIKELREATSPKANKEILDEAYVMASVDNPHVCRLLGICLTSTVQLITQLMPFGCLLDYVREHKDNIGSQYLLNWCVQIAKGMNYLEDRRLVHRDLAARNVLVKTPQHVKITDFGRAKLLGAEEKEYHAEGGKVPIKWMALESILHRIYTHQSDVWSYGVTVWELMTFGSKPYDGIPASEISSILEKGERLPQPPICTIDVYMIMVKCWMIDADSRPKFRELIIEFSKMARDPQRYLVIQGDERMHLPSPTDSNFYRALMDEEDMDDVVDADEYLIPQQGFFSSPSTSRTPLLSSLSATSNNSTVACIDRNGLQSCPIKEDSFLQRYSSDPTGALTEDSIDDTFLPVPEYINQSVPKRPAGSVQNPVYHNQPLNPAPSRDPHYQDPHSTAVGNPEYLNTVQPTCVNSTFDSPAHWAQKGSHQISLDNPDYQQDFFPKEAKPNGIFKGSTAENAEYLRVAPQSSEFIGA
Protocol for EGFR D770insNPG: (§1) Cell viability was determined by the Cell Titer Glo assay.
(§2) Briefly, stable Ba/F3 cell lines were generated by retroviral transduction of Ba/F3 cell line for 12 hours. […] Three days after transduction, 2 μg/ml puromycin (Invitrogen) was added to the RPMI media. Cell lines were then grown in the absence of IL-3 for two weeks and cell viability was assessed every three days using the Cell Titer Glo assay (Progema).
(§3) Briefly, 2000-3000 cells per well were plated in 384-well plates (Greiner Bio-One) in technical triplicate. Cells were treated with seven different concentrations of tyrosine kinase inhibitors or vehicle alone at a final volume of 40 μL per well. After 3 days, 11 μL of Cell Titer Glo was added to each well. Plates were shaken for 15 minutes, and bioluminescence was determined using a FLUOstar OPTIMA multi-mode micro-plate reader (BMG LABTECH). Bioluminescence values were normalized to DMSO treated cells, and normalized values were plotted in GraphPad Prism using non-linear regression fit to normalized data with a variable slope.
Protocol for EGFR E709A: as §1, §2, §3
Protocol for EGFR E709K L858R: as §1, §2, §3
Protocol for EGFR Ex19del G724S: (§4) The transforming capability of the mutations was then evaluated by sustained cell viability following IL-3 deprivation. Activating EGFR mutant Ba/F3 cells were then screened against EGFR TKIs. Cell viability was determined by the Cell Titer Glo assay.
(§5) Ba/F3 cells expressing acquired atypical mutations spanning exons 18-21 were treated with inhibitors for 72 hours. […] Briefly, stable Ba/F3 cell lines were generated by retroviral transduction of Ba/F3 cell line for 12 hours. […] Three days after transduction, 2 μg/ml puromycin (Invitrogen) was added to the RPMI media. Cell lines were then grown in the absence of IL-3 for two weeks and cell viability was assessed every three days using the Cell Titer Glo assay (Progema).
as §3
Protocol for EGFR Ex19del L718Q: as §4, §5, §3
Protocol for EGFR Ex19del/L792H: as §4, §5, §3
Protocol for EGFR Ex19del/T790M/L792H: as §1, §2, §3
Protocol for EGFR Ex19delT790M L718V: as §1, §2, §3
Protocol for EGFR G719A T790M: as §1, §3
Protocol for EGFR G719A/R776C: as §1, §3
Protocol for EGFR G724S: as §1, §2, §3
Protocol for EGFR L747S: as §1, §2, §3
Protocol for EGFR L833F: as §1, §2, §3
Protocol for EGFR L858R G724S: as §4, §5, §3
Protocol for EGFR L858R/T790M/L718Q: as §1, §2, §3
Protocol for EGFR R776C: as §1, §2, §3
Protocol for EGFR S768I V774M: as §1, §2, §3
Protocol for EGFR S768I/T790M: as §1, §3
Protocol for EGFR S784F: as §1, §2, §3

A word on the pIC50: it is the negative decadic logarithm of the IC50, by convention in mol/L. `C=CC(=O)N1CC[C@@H](Oc2nc(Nc3ccc(N4CCC(N5CCN(C)CC5)CC4)cc3)c(C(N)=O)nc2CC)C1` [Naquotinib]: the pIC50 on EGFR L858R/T790M/L718Q is 7.04; at EGFR Ex19del G724S, 6.16; at EGFR R776C, 6.24; on EGFR Ex19del L718Q, 8.58; at EGFR Ex19del/T790M/L792H, 8.32; on EGFR L747S it was 6.92. Moreover, the pIC50 was 7.93 on EGFR G719A T790M; 6.96 at EGFR L858R G724S; 7.96 at EGFR E709K L858R; 8.11 at EGFR Ex19delT790M L718V; 8.40 at EGFR Ex19del/L792H; 7.72 on EGFR S768I/T790M. For the same molecule, the negative logarithm of the IC50 (pIC50) at EGFR L833F was 6.39; at EGFR S784F, 7.15; at EGFR D770insNPG, 6.76; on EGFR E709K it was 6.45; at EGFR G719A/R776C, 7.41; at EGFR E709A, 6.59. Also, the figures for the pIC50 on EGFR G724S and at EGFR S768I V774M were 7.24 and 7.18, respectively.
